This experiment deals with T1, EpzP (Streptomyces virginiae, UniProt E5KWG9).
T1 construct: pET28a His6-tag, E. coli Rosetta2; tag thrombin-cleaved for structures (EpzPm: lysines reductively methylated, 18 of 19)
T1 sequence (E5KWG9 1-302): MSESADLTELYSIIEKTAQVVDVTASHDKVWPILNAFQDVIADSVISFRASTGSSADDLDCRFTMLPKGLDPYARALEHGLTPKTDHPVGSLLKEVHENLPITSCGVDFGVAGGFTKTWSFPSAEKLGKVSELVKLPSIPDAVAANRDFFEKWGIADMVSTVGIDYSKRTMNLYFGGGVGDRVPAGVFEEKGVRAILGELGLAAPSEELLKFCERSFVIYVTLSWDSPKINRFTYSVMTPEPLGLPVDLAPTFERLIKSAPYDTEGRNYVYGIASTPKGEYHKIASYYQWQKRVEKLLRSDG
Kind of experiment: X-ray crystal structure ([…] A). The conditions noted are these: lysine-methylated EpzP; crystal soaked with 5 mM DMSPP, hydrolysed to SPP; diphosphate site; acidic pH. In kind it is binding.

Results on one compound are retold here after PMC3485228, “Structure-Based Engineering Increased the Catalytic Turnover Rate of a Novel Phenazine Prenyltransferase” (PLoS ONE, 2012).

In the case of `O=P(O)(O)OP(=O)(O)S` (stereo not shown) [S-thiolodiphosphate], the “X-ray crystal structure (1.67 A)” value is “revealed the presence of a S-thiolodiphosphate (SPP) moiety in the diphosphate binding site”.
